Here are results for 10 molecules from US11465998B2, “Therapeutic compounds and methods of use thereof” (Regents of the University of Minnesota, priority 2019, dated 2022).

Common to all, as to type: cell-based
One experiment has as its system human whole blood. Nature of the experiment: Cytokine/chemokine induction in human whole blood.
Experiment [1] deals with human peripheral blood mononuclear cells (PBMCs). Nature of the experiment: Multiplexed immunoassays for human cytokines in PBMCs. The procedure:
(§1) Example 5: High-throughput screens in porcine blood: Curated compound collections were obtained from the Institute for Therapeutics Discovery & Development at the University of Minnesota. Compound transfers from source (80 nL of 10 mM stocks) to assay plates were performed using an Echo 550 acoustic liquid handler (Labcyte, Sunnyvale, Calif.). For most libraries, a target final concentration of 10 μM of compound (in a final volume of 80 μL for the assay described below) was achieved. Compound plates were hermetically sealed and stored at −80° C. until used. Fresh, heparin-anticoagulated porcine blood from healthy animals were obtained under USDA supervision from Midwest Research Swine, LLC (Glencoe, Minn.). 80 μL of hematocrit-enriched porcine blood (low-speed centrifugation, followed by resuspension in DMEM supplemented with 10% fetal bovine serum) was added to compound plates and incubated for 15 h. The following day, the plates were briefly centrifuged (100 g, 10 min), and supernatants were transferred using an automated ViaFlow 384 transfer device (Integra Biosciences Corp., Hudson, N.H.) to assay plates containing of 10^6 cells/mL of each of the following NF-κB/secreted alkaline phosphatase reporter cells suspended in HEK-Blue Detection Media: human IFN-α/β, human IFN-γ, human TNF-α/IL-1β (InvivoGen, San Diego, Calif.). NF-κB translocation was assayed spectrophotometrically using an alkaline phosphatase-specific chromogen (present in HEK-detection medium as supplied by InvivoGen) at 620 nm using a SpectraMax M4 multimode microplate reader (Molecular Devices, Sunnyvale, Calif.). Z′ factors were computed for each TLR/NOD-specific signals. Hits were defined as signals >4σ (in-plate standard deviations for test compounds above negative control means), were deconvoluted in full dose-response assays in human TLR-2/-3/-4/-5/-7/-8/-9 and NOD-1/NOD-2-specific reporter cells in liquid handler-assisted assay formats as described previously. Example 6: Murine knockout cell-lines: The following reagents were obtained through BEI Resources, NIAID, NIH: the microglial cell line derived from MAL/MyD88 double knockout Mice (NR-9904), and the macrophage cell line derived from TRIF/TRAM knockout mice (NR-9568). Example 7: Human NOD1/2-specific reporter gene assays (NF-κB induction), and TLR-2/-3/-4/-5/-7/-8/-9/STING/ISG counter-screens: The induction of NF-κB was quantified using human TLR-2/-3/-4/-5/-7/-8/-9/NOD-1/NOD-2/STING/ISG-specific, rapid-throughput, liquid handler-assisted reporter gene assays as previously described by us (Wu, W. et al. J. Med. Chem. 2010, 53, 3198-3213; Shukla, N. M. et al. J. Med. Chem. 2010, 53, 4450-4465; Agnihotri, G. et al. J. Med. Chem. 2011, 54, 1490-1510 and Ukani, R. et al. Bioorg. Med. Chem. Lett. 2012, 22, 293-295). […]

The next experiment deals with T1, human NOD2 (Homo sapiens, UniProt Q9HC29).
T1 construct: host or cells: HEK293
Briefly: human NOD2 specific reporter gene assay (NF-κB induction). The conditions noted are these: for hNOD2-agonistic activity (in words): human NOD2 reporter gene assay; for EC50: human NOD2 specific reporter gene assay, arithmetic mean of quadruplicate samples, NA* indicates inactive under the tested conditions, read-out: hNOD2 Agonistic Activity (μM), EC50. The procedure: as §1, with “293-295). HEK293 cells stably co-transfected with the appropriate hTLR and secreted alkaline phosphatase (sAP) were maintained in HEK-Blue™ Selection medium. Stable expression of secreted alkaline phosphatase (sAP) under control of NF-κB/AP-1/IRF promoters is inducible by appropriate innate immune stimuli, and extracellular sAP in the supernatant is proportional to NF-κB/IRF induction. Reporter cells were incubated at a density of ˜10^5 cells/ml in a volume of 80 μl/well, in 384-well, flat-bottomed, cell culture-treated microtiter plates in the presence of graded concentrations of stimuli. sAP was assayed spectrophotometrically using an alkaline phosphatase-specific chromogen (present in HEK-detection medium as supplied by InvivoGen) at 620 nm. Example 8: Multiplexed immunoassays for human cytokines: Fresh human peripheral blood mononuclear cells (hPBMC) were isolated from human blood obtained by venipuncture in Cell Preparation Tubes (CPT, Beckton-Dickinson) with informed consent and as per guidelines approved by the University of Minnesota Human Subjects Experimentation Committee. Aliquots of PBMCs or THP-1 cells (10^5 cells in 100 μL/well) were stimulated for 16 h with graded concentrations of test compounds.” for “293-295).”
A general note: A reporter such as luciferase makes a cellular process visible.

Experiment [2] has as its system macrophage cell line derived from TRIF/TRAM knockout mice (NR-9568). Briefly: Cytokine/chemokine induction in TRIF/TRAM double-knockout cell line. As to conditions: TRIF/TRAM double-knockout murine cell line. The procedure: (§2) Cytokine induction by 7e and 7f was examined in murine-derived cell lines. […] The absence of activity was not due to extensive plasma protein binding by re-examining under near-serum-free conditions.
(§3) Example 5: High-throughput screens in porcine blood: Curated compound collections were obtained from the Institute for Therapeutics Discovery & Development at the University of Minnesota. Compound transfers from source (80 nL of 10 mM stocks) to assay plates were performed using an Echo 550 acoustic liquid handler (Labcyte, Sunnyvale, Calif.). For most libraries, a target final concentration of 10 μM of compound (in a final volume of 80 μL for the assay described below) was achieved. Compound plates were hermetically sealed and stored at −80° C. until used. Fresh, heparin-anticoagulated porcine blood from healthy animals were obtained under USDA supervision from Midwest Research Swine, LLC (Glencoe, Minn.). 80 μL of hematocrit-enriched porcine blood (low-speed centrifugation, followed by resuspension in DMEM supplemented with 10% fetal bovine serum) was added to compound plates and incubated for 15 h. […] NF-κB translocation was assayed spectrophotometrically using an alkaline phosphatase-specific chromogen (present in HEK-detection medium as supplied by InvivoGen) at 620 nm using a SpectraMax M4 multimode microplate reader (Molecular Devices, Sunnyvale, Calif.). […] Example 7: Human NOD1/2-specific reporter gene assays (NF-κB induction), and TLR-2/-3/-4/-5/-7/-8/-9/STING/ISG counter-screens: The induction of NF-κB was quantified using human TLR-2/-3/-4/-5/-7/-8/-9/NOD-1/NOD-2/STING/ISG-specific, rapid-throughput, liquid handler-assisted reporter gene assays as previously described by us (Wu, W. et al. J. Med. Chem. 2010, 53, 3198-3213; Shukla, N. M. et al. J. Med. Chem. 2010, 53, 4450-4465; Agnihotri, G. et al. J. Med. Chem. 2011, 54, 1490-1510 and Ukani, R. et al. Bioorg. Med. Chem. Lett. 2012, 22, 293-295). […]

For experiment [3], the system named is microglial cell line derived from MAL/MyD88 double knockout Mice (NR-9904). Briefly: Cytokine/chemokine induction in MAL/MyD88 double-knockout cell line. The conditions noted are these: MAL/MyD88 double-knockout murine cell line. The procedure:
as §2, §3

The test system of experiment [4] is RAW264.7 murine macrophages. Nature of the experiment: Cytokine/chemokine induction in wild-type RAW264.7 murine macrophages (multiplexed immunoassay). The conditions noted are these: wild-type RAW264.7 murine macrophage cell line. The procedure:
as §2, §3

Structures are written as SMILES. Entries after “also recorded” stand apart in the source; their conditions may differ.

T1 sequence (Q9HC29 whole entry): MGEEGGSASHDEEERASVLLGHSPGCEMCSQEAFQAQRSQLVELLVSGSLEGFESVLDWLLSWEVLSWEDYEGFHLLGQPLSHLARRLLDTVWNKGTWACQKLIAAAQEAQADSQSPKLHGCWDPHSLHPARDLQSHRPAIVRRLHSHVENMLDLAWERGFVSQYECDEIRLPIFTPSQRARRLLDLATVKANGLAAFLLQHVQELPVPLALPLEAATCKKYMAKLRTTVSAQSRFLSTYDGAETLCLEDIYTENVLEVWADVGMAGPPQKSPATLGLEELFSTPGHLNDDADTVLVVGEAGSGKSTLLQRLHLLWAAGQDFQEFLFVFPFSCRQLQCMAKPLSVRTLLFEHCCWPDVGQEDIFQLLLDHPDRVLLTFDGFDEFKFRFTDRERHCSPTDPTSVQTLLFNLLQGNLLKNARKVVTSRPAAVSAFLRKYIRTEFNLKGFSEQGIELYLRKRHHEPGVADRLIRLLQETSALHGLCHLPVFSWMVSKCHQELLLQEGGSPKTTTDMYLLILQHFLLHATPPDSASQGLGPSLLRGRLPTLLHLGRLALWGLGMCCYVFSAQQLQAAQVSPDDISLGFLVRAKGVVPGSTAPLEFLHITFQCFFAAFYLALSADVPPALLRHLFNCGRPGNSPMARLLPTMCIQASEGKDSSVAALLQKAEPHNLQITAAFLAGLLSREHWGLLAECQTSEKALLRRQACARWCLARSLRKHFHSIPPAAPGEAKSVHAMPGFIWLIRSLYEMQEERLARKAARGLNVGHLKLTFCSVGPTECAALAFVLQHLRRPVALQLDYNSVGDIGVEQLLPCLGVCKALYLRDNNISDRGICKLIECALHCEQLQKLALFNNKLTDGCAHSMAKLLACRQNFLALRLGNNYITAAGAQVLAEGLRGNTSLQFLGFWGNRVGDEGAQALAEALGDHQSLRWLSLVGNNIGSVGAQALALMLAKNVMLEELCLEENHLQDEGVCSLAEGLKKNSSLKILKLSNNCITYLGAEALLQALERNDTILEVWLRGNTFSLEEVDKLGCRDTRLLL

Turning to `CCOC(=O)c1cc(-n2cnc3ccccc32)cs1` [Compound 1, Ethyl 4-(1H-benzo[d]imidazol-1-yl)thiophene-2-carboxylate], the “induction of cytokines and chemokines” value in the experiment on human whole blood is “None of the small molecules (including 1, as well as the optimized, equipotent analogues 7e and 7f) showed any activity”. The “induction of chemokines and cytokines” value in experiment [1] is “None of the small molecules (including 1, as well as the optimized, equipotent analogues 7e and 7f) showed any activity”.
Take `CCCCCc1nc2ccccc2n1-c1csc(C(=O)NO)c1` [Compound 11b, N-Hydroxy-4-(2-pentyl-1H-benzo[d]imidazol-1-yl)thiophene-2-carboxamide]: at human NOD2, the “hNOD2-agonistic activity (in words)” value was “weak activity” and the EC50 turned out to be 1.84 µM.
For the molecule `CCCCCc1nc2ccccc2n1-c1csc(C(=O)NC)c1` [Compound 11c, N-Methyl-4-(2-pentyl-1H-benzo[d]imidazol-1-yl)thiophene-2-carboxamide], at human NOD2, the “hNOD2-agonistic activity (in words)” value was “weak activity” and the EC50 amounted to 7.02 µM.
As for `CCCCCc1nc2ccccc2n1-c1csc(C(=N)N)c1` [Compound 13b, 4-(2-Pentyl-1H-benzo[d]imidazol-1-yl)thiophene-2-carboximidamide], on human NOD2, the “hNOD2-agonistic activity (in words)” value was “weak activity” and the EC50 came to 6.57 µM.
In the case of `CCCCCc1nc2ccccc2n1-c1csc(C(N)=O)n1` [Compound 14, 4-(2-Pentyl-1H-benzo[d]imidazol-1-yl)thiazole-2-carboxamide], on human NOD2, the “hNOD2-agonistic activity (in words)” value is “weakly active” and the EC50 stood at 7.39 µM.
For `NC(=O)c1cc(-n2cnc3cnccc32)cs1` [Compound 18a, 4-(1H-Imidazo[4,5-c]pyridin-1-yl)thiophene-2-carboxamide], the “hNOD2-agonistic activity (in words)” value on human NOD2 is “inactive”.
Regarding `CCCCc1nc2cnccc2n1-c1csc(C(N)=O)c1` [Compound 18b, 4-(2-Butyl-1H-imidazo[4,5-c]pyridin-1-yl)thiophene-2-carboxamide], at human NOD2, the “hNOD2-agonistic activity (in words)” value was “weakly active” and the EC50 was found to be 5.65 µM.
As for `NC(=O)c1cc(-n2cnc3c(N)nccc32)cs1` [Compound 19a, 4-(4-Amino-1H-imidazo[4,5-c]pyridin-1-yl)thiophene-2-carboxamide], on human NOD2, the “hNOD2-agonistic activity (in words)” value is “inactive”.
`CCCCc1nc2c(N)nccc2n1-c1csc(C(N)=O)c1` [Compound 19b, 4-(4-Amino-2-butyl-1H-imidazo[4,5-c]pyridin-1-yl)thiophene-2-carboxamide]: on human NOD2, the “hNOD2-agonistic activity (in words)” value was “weakly active” and the EC50 was determined as 4.08 µM.
`CCCCOC(=O)[C@@H](CCC(N)=O)NC(=O)[C@H](C)NC(=O)[C@@H](C)O[C@H]1[C@H](O)[C@@H](CO)OC(O)[C@@H]1NC(C)=O` (stereo partly drawn) [murabutide, N-Acetyl-muramyl-LAlanyl-D-Glutamin-n-butyl-ester, reference compound]: the “cytokine and chemokine induction” value in experiment [2] and in experiment [3] was “abrogation of responsiveness” each time. For the same molecule, the “induction of cytokines and chemokines” value in the experiment with human whole blood was “induced significant levels of cytokines and chemokines”. Further, the “induction of chemokines and proinflammatory cytokines” value in experiment [4] is “potently immunostimulatory; also recorded: induction of chemokines and cytokines”. The “induction of chemokines and cytokines” value in experiment [1] is “induced significant levels of cytokines and chemokines”.

In general, EC50 refers to the midpoint of the concentration-response curve.
